From patent US20170056351A1, “COMPOSITION FOR INDUCING TUMOR IMMUNITY” (UNIVERSITY OF OCCUPATIONAL AND ENVIRONMENTAL HEALTH, JAPAN, priority 2014, published 2017)

Columns and labels:
[1] = tested on: 9L cells; assay: Intracellular localization of ROS 12 hours after ionizing radiation (DCFD, confocal laser scanning microscope), 9L; assay type: cell-based, rat; details: pre-treatment with 1 mM 5-ALA 4 hours before 10 Gy, 12 hours after irradiation, vs no 5-ALA
Method: Intracellular ROS production was detected by our method using DCFD and a confocal laser scanning microscope (LMS5 Pascal; Carl Zeiss, Jena, Germany) (Yamamoto J, Ogura S, Tanaka T, et al: Radiosensitizing effect of 5-aminolevulinic acid-induced protoporphyrin IX in glioma cells in vitro. Oncol Rep 27: 1748-1752, 2012.). Briefly, the cells were seeded in a fresh medium containing 1 mM 5-ALA in a 35-mm glass-bottom culture dish (Asahi Techno Glass, Tokyo, Japan), and were then incubated at 37° C. for 4 hours in a dark room. Thereafter, the cells were washed with PBS, and were then exposed to an ionizing radiation of 10 Gy. Twelve hours after the ionizing irradiation, the cells were washed with PBS twice, and were then incubated together with 10 μM DCFD for 15 minutes. Thereafter, the cells were washed with PBS twice, and immediately after the washing, the resulting cells were observed. DCFD fluorescence (excitation: 488 nm; radiation: 505-530 nm band-pass filter) was imaged on a confocal laser scanning microscope. All procedures were carried out in a dark room.

[2] = tested on: Iba1-positive macrophages in subcutaneously transplanted 9L gliosarcoma; assay: Pathologic examination of subcutaneous tumor, Iba1 staining of macrophages and microdensitometry; assay type: in vivo, rat
Method: After completion of the immobilization, all of the tumor samples were cut at the center of tumor in the longitudinal direction. The obtained fragments were each stained with hematoxylin and eosin (HE), and were also stained with Iba1 or CD68 for detection of macrophages. Briefly, the sample was bathed in water for pre-treatment (40 minutes, 95° C.), and the deparaffinized portion was then washed with KN Buffer (KN-09002; Pathology Institute Corp, Toyama, Japan). Subsequently, the fragment was incubated with goat polyclonal anti-Iba1 (1:3000, ab107159, Abcam) or anti-CD68 antibody (1:100, MCA-341R, AbD) for 30 minutes, and were further washed with KN Buffer. Subsequently, regarding Iba1, the fragment was incubated with Simple Stain™ MAX-PO (G) (H1301; Nichirei Bioscience Inc. Japan) for 30 minutes. Regarding CD68, the fragment was incubated with Envision+Dual Link HRP-label/polymer reagent (Dako: K4061) for 30 minutes. The resultant was finally washed with KN Buffer, and was then treated with diaminobenzidine (DAB) for 10 minutes for color development. […]
Moreover, the procedures of the previous study (Prall F, Maletzki C, Linnebacher M: Microdensitometry of osteopontin as an immunohistochemical prognostic biomarker in colorectal carcinoma tissue microarrays: potential and limitations of the method in ‘biomarker pathology’. Histopathology 61: 823-32, 2012.) were partially modified, and using public domain software, Image J (Wayne Rasband, National Institute of Mental Health, Bethesda, Md.), microdensitometry was carried out regarding immunohistochemical quantitative evaluation of Iba1 on a digital photomicrograph. […] In order to quantify the color signals of immunohistochemical DAB of Iba1, the image data of all samples were transferred into Image J, and were then converted to 8-bit grayscale images. […] The present inventors have defined the mean gray value (MGV) of all of the tumor samples in a control group (n=5) as a representative value, and the relative intensities of MGVs in other groups to the aforementioned representative value were then calculated.

NCC(=O)CCC(=O)O [ALA, 5-aminolevulinic acid]
DCF fluorescence in the cytoplasm (confocal) [1]: apparently increased
mean gray value (MGV) of Iba1, microdensitometry, versus other groups ([2]; ALA multiple-dose + ionizing radiation multiple-dose group, p<0.05 vs RT group, p<0.01 vs ALA group): significantly higher
Iba1-positive macrophages in subcutaneous tumor ([2]; ALA multiple-dose administration group, 16th day after treatment): mainly gathered to the surface of the subcutaneous tumor
gathering of Iba1-positive macrophages to surface and inside of subcutaneous tumor ([2]; ionizing radiation combined with ALA administration, 16th day after treatment): significantly observed
